Read-outs that look alike come from different tables or passages of the source.
What was measured:
[1] = test system: hamsters fed a high cholesterol diet; experiment: Measurement of lipid lowering effect in hamsters fed a high cholesterol diet; assay type: in vivo, Male Golden Syrian hamsters; settings: for inhibition in vivo at 0.1 mg/kg / inhibition in vivo at 0.01 mg/kg: Mesocricetus auratus, po, 168 h, gavage once daily, 7 days
Method in brief: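 Male Golden Syrian hamsters (6/group) on 0.5% cholesterol diet, dosed by gavage once daily in corn oil at 0.01 to 10 mg/kg; serum and liver sampled 4 h after last dose. TC, TG and LDL-C measured enzymatically; effects expressed as % suppression versus control and normal-diet groups.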

Caco-2 cells = experiment: Cholesterol absorption inhibition assay (in vitro), [14C] cholesterol mixed micelles; assay type: cell-based; settings: Homo sapiens, 24 hours, read-out: cholesterol absorption inhibitory activity; for inhibition at 10 µM: concentration of 10 μM; for inhibition at 12.5 µM: concentration of 12.5 μM
Experimental: This assay measures cholesterol absorption inhibitory activity by adding mixed micelles containing [^14C] cholesterol to cells and measuring cholesterol taken in the cells as oleic acid cholesteryl ester. The assay is conducted after Caco-2 cells are seeded on multi-well plates and cultured (culture medium: DMEM containing 10% fetal bovine serum, 1% non-essential amino acids, 1% penicillin, and 1% streptomycin) for 2 weeks. To each well, the micelle solution (in an amount required to provide the following final concentrations: 600 μM of sodium oleate, 50 μM of phosphatidyl choline, 5 mM of sodium taurocholate, 2.5 μM of cholesterol, and 2.5 μM of [^14C] cholesterol) and a test compound solution (in an amount required to provide the final concentration of 0.5 to 25 μM) or a solvent as a control are added, and incubation is started at 37° C. 24 hours later, the culture medium is removed, and the lipid component is extracted with hexane/2-propanol (3:2, v/v) and applied onto thin-layer silica gel plates. After drying, each plate is eluted with a mixture of hexane, diethyl ether, and acetic acid in a ratio of 83:16:1. The plates are photoexposed on imaging plates and analyzed using BAS-2500 (FUJIFILM). The amounts of light exposure of the areas corresponding to the cholesteryl ester are calculated. Background is measured using a blank space of the plate. Inhibition rates are calculated using values obtained by subtracting the background values from both values of the control and the test sample, respectively, in accordance with the following equation. A test value is calculated as a percentage (%) with respect to the control.
In the Equation 1, A is the control group, BG is a background, and B is the test compound.
The following results were obtained from the measurement by this method on cholesterol absorption inhibitory activity of the compounds of the present invention. The following results were obtained by the evaluation using concentrations of 10 μM and/or 12.5 μM.

[2] = dose 0.1 mg/kg, read-out: serum TG lowering effect (serum TG lowering rate)
[3] = read-out: liver TC lowering effect (suppression rate of an increase in liver TC concentration)
[4] = read-out: serum LDL-C lowering effect (suppression rate of an increase in serum LDL-C concentration)
[5] = read-out: serum TC lowering effect (suppression rate of an increase in serum TC concentration)
[6] = dose 0.1 mg/kg, read-out: liver TC lowering effect (suppression rate of an increase in liver TC concentration)
[7] = dose 0.1 mg/kg, read-out: serum LDL-C lowering effect (suppression rate of an increase in serum LDL-C concentration)
[8] = dose 0.1 mg/kg, read-out: serum TC lowering effect (suppression rate of an increase in serum TC concentration)

N#Cc1ccc(-c2ccc(N3C(=O)[C@H](SC[C@H](O)c4ccc(F)cc4)[C@H]3c3ccc(O)cc3)cc2)cn1 [Example 9, 5-(4-{(3R,4R)-3-[(2R)-2-(4-fluorophenyl)-2-hydroxyethylthio]-4-(4-hydroxyphenyl)-2-oxoazetidinyl}phenyl)pyridine-2-carbonitrile]
inhibition in vivo at 0.1 mg/kg [1, 2]: ≥ 20% | inhibition at 10 µM (Caco-2 cells): ≥ 50%

O=C1[C@H](SC[C@H](O)c2ccc(F)cc2)[C@@H](c2ccc(O)cc2)N1c1ccc(-c2cncc(Cl)c2)cc1 [Example 56, (3R,4R)-3-[(2R)-2-(4-fluorophenyl)-2-hydroxyethylthio]-1-[4-(5-chloropyridin-3-yl)phenyl]-4-(4-hydroxyphenyl)azetidin-2-one]
inhibition in vivo at 0.01 mg/kg [1, 3]: ≥ 30% | inhibition in vivo at 0.01 mg/kg [1, 4]: ≥ 30% | inhibition in vivo at 0.01 mg/kg [1, 5]: ≥ 30% | inhibition in vivo at 0.1 mg/kg [1, 6]: ≥ 50% | inhibition at 10 µM (Caco-2 cells): ≥ 50%

O=C1[C@H](SC[C@H](O)c2ccc3sccc3c2)[C@@H](c2ccc(O)cc2)N1c1ccc(-c2cccnc2)cc1 [Example 83, (3R,4R)-3-((2R)-2-benzo[b]thiophen-5-yl-2-hydroxyethylthio)-4-(4-hydroxyphenyl)-1-[4-(pyridin-3-yl)phenyl]azetidin-2-one]
inhibition in vivo at 0.1 mg/kg [1, 7]: ≥ 50% | inhibition in vivo at 0.1 mg/kg [1, 8]: ≥ 50% | inhibition at 12.5 µM (Caco-2 cells): ≥ 60%

COc1ccncc1-c1ccc(N2C(=O)[C@H](SC[C@H](O)c3ccc(F)cc3)[C@H]2c2ccc(O)cc2)cc1 [Example 16, (3R,4R)-3-[(2R)-2-(4-fluorophenyl)-2-hydroxyethylthio]-4-(4-hydroxyphenyl)-1-[4-(4-methoxypyridin-3-yl)phenyl]azetidin-2-one]
inhibition in vivo at 0.01 mg/kg [1, 3]: ≥ 30% | inhibition in vivo at 0.1 mg/kg [1, 8]: ≥ 50% | inhibition at 10 µM (Caco-2 cells): ≥ 50% | inhibition at 12.5 µM (Caco-2 cells): ≥ 60%

Cc1ccc(-c2ccc(N3C(=O)[C@H](SC[C@H](O)c4ccc(Cl)cc4)[C@H]3c3ccc(O)cc3)cc2)cn1 [Example 91, (3R,4R)-3-[(2R)-2-(4-chlorophenyl)-2-hydroxyethylthio]-4-(4-hydroxyphenyl)-1-[4-(6-methylpyridin-3-yl)phenyl]azetidin-2-one]
inhibition in vivo at 0.01 mg/kg [1, 5]: ≥ 30% | inhibition at 12.5 µM (Caco-2 cells): ≥ 60%

O=C1[C@H](SC[C@H](O)c2ccc(F)cc2)[C@@H](c2ccc(O)cc2)N1c1ccc(-c2cncc(F)c2)cc1 [Example 55, (3R,4R)-3-[(2R)-2-(4-fluorophenyl)-2-hydroxyethylthio]-1-[4-(5-fluoropyridin-3-yl)phenyl]-4-(4-hydroxyphenyl)azetidin-2-one]
inhibition in vivo at 0.01 mg/kg [1, 3]: ≥ 30% | inhibition in vivo at 0.01 mg/kg [1, 4]: ≥ 30% | inhibition in vivo at 0.01 mg/kg [1, 5]: ≥ 30% | inhibition in vivo at 0.1 mg/kg [1, 2]: ≥ 20% | a serum TC lowering effect at a dose of 0.1 mg/kg ([1]; Table 22, suppression rate of an increase in serum TC concentration, dose 0.1 mg/kg): 130% | inhibition at 10 µM (Caco-2 cells): ≥ 50%

CC(=O)c1cncc(-c2ccc(N3C(=O)[C@H](SC[C@H](O)c4ccc(F)cc4)[C@H]3c3ccc(O)cc3)cc2)c1 [Example 48, (3R,4R)-3-[(2R)-2-(4-fluorophenyl)-2-hydroxyethylthio]-1-[4-(5-acetylpyridin-3-yl)phenyl]-4-(4-hydroxyphenyl)azetidin-2-one]
inhibition in vivo at 0.1 mg/kg [1, 2]: ≥ 20% | inhibition at 10 µM (Caco-2 cells): ≥ 50% | inhibition at 12.5 µM (Caco-2 cells): ≥ 60%

COc1ncccc1-c1ccc(N2C(=O)[C@H](SC[C@H](O)c3ccc(F)cc3)[C@H]2c2ccc(O)cc2)cc1 [Example 6, (3R,4R)-3-[(2R)-2-(4-fluorophenyl)-2-hydroxyethylthio]-4-(4-hydroxyphenyl)-1-[4-(2-methoxypyridin-3-yl)phenyl]azetidin-2-one]
inhibition in vivo at 0.1 mg/kg [1, 8]: ≥ 50% | inhibition in vivo at 0.1 mg/kg [1, 2]: ≥ 20% | inhibition at 12.5 µM (Caco-2 cells): ≥ 60%

CN(C)c1ccc(-c2ccc(N3C(=O)[C@H](SC[C@H](O)c4ccc(F)cc4)[C@H]3c3ccc(O)cc3)cc2)cn1 [Example 22, (3R,4R)-3-[(2R)-2-(4-fluorophenyl)-2-hydroxyethylthio]-1-[4-(6-dimethylaminopyridin-3-yl)phenyl]-4-(4-hydroxyphenyl)azetidin-2-one]
inhibition in vivo at 0.01 mg/kg [1, 3]: ≥ 30% | inhibition in vivo at 0.01 mg/kg [1, 4]: ≥ 30% | inhibition in vivo at 0.1 mg/kg [1, 7]: ≥ 50% | inhibition in vivo at 0.1 mg/kg [1, 8]: ≥ 50% | inhibition at 10 µM (Caco-2 cells): ≥ 50% | inhibition at 12.5 µM (Caco-2 cells): ≥ 60%

Cc1cc(O)ccc1[C@@H]1[C@@H](SC[C@H](O)c2ccc(F)cc2)C(=O)N1c1ccc(-c2cccnc2)cc1 [Example 38, (3R,4R)-3-[(2R)-2-(4-fluorophenyl)-2-hydroxyethylthio]-4-(4-hydroxy-2-methylphenyl)-1-[4-(pyridin-3-yl)phenyl]azetidin-2-one]
inhibition in vivo at 0.01 mg/kg [1, 4]: ≥ 30% | inhibition in vivo at 0.1 mg/kg [1, 7]: ≥ 50% | inhibition in vivo at 0.1 mg/kg [1, 8]: ≥ 50% | inhibition at 10 µM (Caco-2 cells): ≥ 50%

COc1cc(O)ccc1[C@@H]1[C@@H](SC[C@H](O)c2ccc(F)cc2)C(=O)N1c1ccc(-c2cccnc2)cc1 [Example 24, (3R,4R)-3-[(2R)-2-(4-fluorophenyl)-2-hydroxyethylthio]-4-(4-hydroxy-2-methoxyphenyl)-1-[4-(pyridin-3-yl)phenyl]azetidin-2-one]
inhibition in vivo at 0.1 mg/kg [1, 6]: ≥ 50% | inhibition in vivo at 0.1 mg/kg [1, 8]: ≥ 50% | inhibition at 10 µM (Caco-2 cells): ≥ 50%

O=C1[C@H](SC[C@H](O)c2ccc(Cl)c(F)c2)[C@@H](c2ccc(O)cc2)N1c1ccc(-c2cccnc2)cc1 [Example 81, (3R,4R)-3-[(2R)-2-(4-chloro-3-fluorophenyl)-2-hydroxyethylthio]-4-(4-hydroxyphenyl)-1-[4-(pyridin-3-yl)phenyl]azetidin-2-one]
inhibition in vivo at 0.1 mg/kg [1, 7]: ≥ 50% | inhibition in vivo at 0.1 mg/kg [1, 8]: ≥ 50% | inhibition at 12.5 µM (Caco-2 cells): ≥ 60%

O=C1[C@H](SC[C@H](O)c2ccc(F)cc2)[C@@H](c2ccc(O)c(O)c2)N1c1ccc(-c2cccnc2)cc1 [Example 37, (3R,4R)-3-[(2R)-2-(4-fluorophenyl)-2-hydroxyethylthio]-4-(3,4-dihydroxyphenyl)-1-[4-(pyridin-3-yl)phenyl]azetidin-2-one]
inhibition at 10 µM (Caco-2 cells): ≥ 50%

O=C1[C@H](SC[C@H](O)c2ccc(F)cc2)[C@@H](c2ccc(O)c(Cl)c2)N1c1ccc(-c2cccnc2)cc1 [Example 39, (3R,4R)-3-[(2R)-2-(4-fluorophenyl)-2-hydroxyethylthio]-4-(3-chloro-4-hydroxyphenyl)-1-[4-(pyridin-3-yl)phenyl]azetidin-2-one]
inhibition at 10 µM (Caco-2 cells): ≥ 50%

Cc1cc(N2C(=O)[C@H](SC[C@H](O)c3ccc(F)cc3)[C@H]2c2ccc(O)cc2)ccc1-c1cccnc1 [Example 47, (3R,4R)-3-[(2R)-2-(4-fluorophenyl)-2-hydroxyethylthio]-4-(4-hydroxyphenyl)-1-[3-methyl-4-(pyridin-3-yl)phenyl]azetidin-2-one]
inhibition at 10 µM (Caco-2 cells): ≥ 50%

CC(=O)c1cncc(-c2ccc(N3C(=O)[C@H](SC[C@H](O)c4ccc(Cl)cc4)[C@H]3c3ccc(O)cc3)cc2)c1 [Example 105, (3R,4R)-3-[(2R)-2-(4-chlorophenyl)-2-hydroxyethylthio]-1-[4-(5-acetylpyridin-3-yl)phenyl]-4-(4-hydroxyphenyl)azetidin-2-one]
inhibition at 12.5 µM (Caco-2 cells): ≥ 60%

O=C1[C@H](SC[C@H](O)c2ccc(F)cc2)[C@@H](c2ccc(O)cc2)N1c1ccc(-c2cccnc2)c(F)c1 [Example 36, (3R,4R)-3-[(2R)-2-(4-fluorophenyl)-2-hydroxyethylthio]-1-[3-fluoro-4-(pyridin-3-yl)phenyl]-4-(4-hydroxyphenyl)azetidin-2-one]
inhibition at 10 µM (Caco-2 cells): ≥ 50%

O=C1[C@H](SC[C@H](O)c2ccc(F)cc2)[C@@H](c2ccc(O)cc2)N1c1ccc(-c2cccnc2)cc1 [Example 1, (3R,4R)-3-[(2R)-2-(4-fluorophenyl)-2-hydroxyethylthio]-4-(4-hydroxyphenyl)-1[4-(pyridin-3-yl)phenyl]azetidin-2-one]
inhibition at 12.5 µM (Caco-2 cells): ≥ 60%

O=C1[C@H](SC[C@H](O)c2ccc(F)cc2)[C@@H](c2ccc(O)cc2)N1c1ccc(-c2cccnc2F)cc1 [Example 21, (3R,4R)-3-[(2R)-2-(4-fluorophenyl)-2-hydroxyethylthio]-1-[4-(2-fluoropyridin-3-yl)phenyl]-4-(4-hydroxyphenyl)azetidin-2-one]
inhibition at 10 µM (Caco-2 cells): ≥ 50%

From US20100125059A1, “1-BIARYLAZETIDINONE DERIVATIVE” (Teijin Pharma Limited, priority 2007, published 2010)
